From patent US20230117034A1, “PYRAZOLOTRIAZINES” (Bayer Aktiengesellschaft, priority 2019, published 2023) come the findings set out here.

Structures are written as SMILES.

In experiment [1] the test system is BRCA1 mRNA expression in MDA-MB-231 cells. Nature of the experiment: qRT-PCR assay: BRCA1 mRNA expression in MDA-MB-231. The format is cell-based, human. The following applies: Homo sapiens, MDA-MB-231, Inhibition of BRCA1 mRNA expression in MDA-MB-231 cells; median; read-out: RTqPCR-MDA-MB-231, IC50, BRCA1 (median). Summed up: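 GAPDH-normalised RT-qPCR measures the transcript after 24 h continuous compound treatment of cells seeded at 200,000/well one day earlier.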
(Real-time PCR tracks product formation cycle by cycle.)

Experiment [2] concerns the target T1, CDK12 (nuclear staining in CAL-120 cells) (Homo sapiens, UniProt Q9NYV4).
T1 construct: endogenous in cells; host or cells: CAL-120 human breast cancer cells (DSMZ ACC 459)
Briefly: CDK12 nuclear protein level: immunofluorescence/high content analysis (CAL-120). The format is cell-based. To be noted: for DC50: CAL-120 cells, 24 h, immunofluorescence, 50% reduction of nuclear CDK12 staining intensity, median, read-out: CDK12 degradation IF, DC50- [mol/l] (median); for (IC50 CDK12 high ATP) to (Degradation DC50 CDK12) ratio: ratio of IC50 CDK12 high ATP kinase assay to DC50 CDK12 degradation (IF, CAL-120). Summed up: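 CAL-120 cells were treated with compound for 24 h at 37 °C, fixed with PFA and immunostained for CDK12. Nuclear CDK12 intensity was quantified by automated image analysis and normalized to DMSO and control. DC50 is the concentration giving 50% reduction of nuclear staining.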

The next experiment has as its target T2, CDK2/CycE (Homo sapiens, UniProt P24941).
T2 construct: purchased ProQinase GmbH (Freiburg, Germany); host or cells: insect cells (Sf9)
Briefly: CDK2/CycE kinase assay (TR-FRET, 2 mM ATP). The format is biochemical. To be noted: 2 mM ATP (high ATP); median; read-out: CDK2/CyclinE, 2 mM ATP (high ATP), IC50 (median). Summed up:
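GST-tagged human CDK2 and CycE from Sf9 cells, about 10 ng/ml, pre-incubated 15 min at 22 °C with compound in Tris/HCl pH 8.0 buffer. Reaction with 2 mM ATP and 0.75 µM biotinylated peptide for 25 min at 22 °C. Phospho-RB antibody TR-FRET (665/620 nm ratio) read after 1 h; data normalised to no-inhibitor and no-enzyme controls.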

T1 sequence (Q9NYV4 whole entry): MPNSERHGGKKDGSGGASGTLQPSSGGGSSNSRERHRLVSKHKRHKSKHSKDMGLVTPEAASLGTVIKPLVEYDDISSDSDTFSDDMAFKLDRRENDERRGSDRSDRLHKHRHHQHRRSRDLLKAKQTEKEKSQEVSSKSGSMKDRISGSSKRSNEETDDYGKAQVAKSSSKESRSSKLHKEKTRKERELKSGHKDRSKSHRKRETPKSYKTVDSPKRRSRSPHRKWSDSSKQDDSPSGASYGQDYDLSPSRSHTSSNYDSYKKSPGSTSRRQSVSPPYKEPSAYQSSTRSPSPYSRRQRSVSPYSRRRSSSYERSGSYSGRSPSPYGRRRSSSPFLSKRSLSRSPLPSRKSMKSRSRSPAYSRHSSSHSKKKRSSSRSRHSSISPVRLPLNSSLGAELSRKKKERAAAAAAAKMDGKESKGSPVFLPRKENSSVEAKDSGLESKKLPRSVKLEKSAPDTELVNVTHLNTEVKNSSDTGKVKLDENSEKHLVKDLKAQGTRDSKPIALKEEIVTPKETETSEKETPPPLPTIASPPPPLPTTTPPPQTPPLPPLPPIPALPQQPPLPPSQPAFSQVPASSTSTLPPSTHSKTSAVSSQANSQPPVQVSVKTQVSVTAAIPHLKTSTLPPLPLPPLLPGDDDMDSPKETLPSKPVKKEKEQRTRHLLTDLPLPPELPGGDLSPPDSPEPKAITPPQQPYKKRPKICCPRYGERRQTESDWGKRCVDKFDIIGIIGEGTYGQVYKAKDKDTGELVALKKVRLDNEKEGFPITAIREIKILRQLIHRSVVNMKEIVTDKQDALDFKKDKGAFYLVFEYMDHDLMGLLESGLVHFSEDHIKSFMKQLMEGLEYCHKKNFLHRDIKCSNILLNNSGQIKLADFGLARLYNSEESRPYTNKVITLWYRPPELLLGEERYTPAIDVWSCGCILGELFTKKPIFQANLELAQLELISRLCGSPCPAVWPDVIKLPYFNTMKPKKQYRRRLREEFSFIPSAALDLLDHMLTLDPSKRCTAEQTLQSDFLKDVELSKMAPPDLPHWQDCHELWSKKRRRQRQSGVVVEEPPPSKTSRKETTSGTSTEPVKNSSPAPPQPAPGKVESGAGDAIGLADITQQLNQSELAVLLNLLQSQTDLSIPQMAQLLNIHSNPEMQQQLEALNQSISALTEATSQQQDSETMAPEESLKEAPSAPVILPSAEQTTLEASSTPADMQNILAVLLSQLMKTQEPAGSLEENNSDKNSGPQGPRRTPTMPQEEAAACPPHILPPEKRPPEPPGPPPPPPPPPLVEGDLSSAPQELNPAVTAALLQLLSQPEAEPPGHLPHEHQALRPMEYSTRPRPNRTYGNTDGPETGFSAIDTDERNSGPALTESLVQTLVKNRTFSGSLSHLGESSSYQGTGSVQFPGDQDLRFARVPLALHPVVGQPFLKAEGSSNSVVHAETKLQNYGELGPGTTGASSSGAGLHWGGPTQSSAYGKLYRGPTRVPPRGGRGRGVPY
T1 sequence (O75909 whole entry partner): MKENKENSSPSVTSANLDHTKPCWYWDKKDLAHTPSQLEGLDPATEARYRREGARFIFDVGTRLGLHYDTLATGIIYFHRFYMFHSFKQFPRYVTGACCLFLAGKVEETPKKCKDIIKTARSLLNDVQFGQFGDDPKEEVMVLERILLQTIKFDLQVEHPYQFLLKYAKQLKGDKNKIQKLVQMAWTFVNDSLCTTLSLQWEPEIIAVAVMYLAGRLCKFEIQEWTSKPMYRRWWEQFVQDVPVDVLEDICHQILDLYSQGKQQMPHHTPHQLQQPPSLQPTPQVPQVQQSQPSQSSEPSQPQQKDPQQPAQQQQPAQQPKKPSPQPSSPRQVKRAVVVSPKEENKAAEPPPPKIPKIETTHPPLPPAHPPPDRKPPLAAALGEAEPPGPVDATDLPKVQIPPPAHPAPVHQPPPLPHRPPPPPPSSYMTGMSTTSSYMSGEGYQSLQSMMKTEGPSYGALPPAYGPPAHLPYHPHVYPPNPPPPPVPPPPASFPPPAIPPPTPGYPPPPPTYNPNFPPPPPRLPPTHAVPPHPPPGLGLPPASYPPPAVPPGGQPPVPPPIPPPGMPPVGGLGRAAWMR

For `CN1CCN(c2nc(NCc3nc4c(F)c(F)ccc4[nH]3)n3ncc(Br)c3n2)CC1` [Example 133, 8-bromo-N-[(4,5-difluoro-1H-benzimidazol-2-yl)methyl]-2-(4-methylpiperazin-1-yl)pyrazolo[1,5-a][1,3,5]triazin-4-amine], the IC50 in experiment [1] was determined as 4.23 nM. Further, in experiment [2], the DC50 was determined as 0.846 nM and the “(IC50 CDK12 high ATP) to (Degradation DC50 CDK12) ratio” value is reported as 8279. On CDK2/CycE, the IC50 amounted to 15100 nM.

As to `Clc1ccccc1-c1cnc(CNc2nc(N3CCOCC3)nc3c(Br)cnn23)[nH]1` [Example 96, 8-bromo-N-{[5-(2-chlorophenyl)-1H-imidazol-2-yl]methyl}-2-(morpholin-4-yl)pyrazolo[1,5-a][1,3,5]triazin-4-amine], the IC50 in experiment [1] came out at 29.4 nM. For the same molecule, in experiment [2], the DC50 is 5.73 nM and the “(IC50 CDK12 high ATP) to (Degradation DC50 CDK12) ratio” value came out at 812. Also, the IC50 on CDK2/CycE is 1780 nM.

For `C[C@H]1CN(c2nc(NCc3nc4ccccc4[nH]3)n3ncc(Br)c3n2)CCN1C` [Example 132, N-[(1H-benzimidazol-2-yl)methyl]-8-bromo-2-[(3S)-3,4-dimethylpiperazin-1-yl]pyrazolo[1,5-a][1,3,5]triazin-4-amine], the IC50 in experiment [1] was determined as 29.5 nM. Besides, in experiment [2], the DC50 came to 0.922 nM and the “(IC50 CDK12 high ATP) to (Degradation DC50 CDK12) ratio” value is listed as greater than 20812. Moreover, the IC50 on CDK2/CycE turned out to be 7430 nM.

With `Clc1ccc2[nH]c(CNc3nc(N4CCOCC4)nc4c(Br)cnn34)nc2c1` [Example 162, 8-bromo-N-[(5-chloro-1H-benzimidazol-2-yl)methyl]-2-(morpholin-4-yl)pyrazolo[1,5-a][1,3,5]triazin-4-amine], in experiment [1], the IC50 came out at 1.09 nM. Moreover, in experiment [2], the DC50 was 0.471 nM and the “(IC50 CDK12 high ATP) to (Degradation DC50 CDK12) ratio” value worked out at 2160. In addition, the IC50 at CDK2/CycE was 4630 nM.

Regarding `Cc1cccc2[nH]c(CNc3nc(N4CCN(C)CC4)nc4c(Br)cnn34)nc12` [Example 151, 8-bromo-N-[(4-methyl-1H-benzimidazol-2-yl)methyl]-2-(4-methylpiperazin-1-yl)pyrazolo[1,5-a][1,3,5]triazin-4-amine], in experiment [1], the IC50 was determined as 18.3 nM. Also, in experiment [2], the DC50 came out at 2.07 nM and the “(IC50 CDK12 high ATP) to (Degradation DC50 CDK12) ratio” value was 2046. Further, the IC50 at CDK2/CycE was 13400 nM.

Consider `CC(C)c1cnn2c(NCc3nc4ccccc4[nH]3)nc(N3CC4(COC4)C3)nc12` [Example 9, N-[(1H-benzimidazol-2-yl)methyl]-2-(2-oxa-6-azaspiro[3.3]heptan-6-yl)-8-(propan-2-yl)pyrazolo[1,5-a][1,3,5]triazin-4-amine], for which the IC50 in experiment [1] was 255 nM. Further, in experiment [2], the DC50 is 80.9 nM and the “(IC50 CDK12 high ATP) to (Degradation DC50 CDK12) ratio” value is listed as greater than 247. Also, at CDK2/CycE, the IC50 was 14700 nM.

On to `Fc1ccc(-c2cnn3c(NCc4nc5ccccc5[nH]4)nc(N4CCOCC4)nc23)cc1` [Example 106, N-[(1H-benzimidazol-2-yl)methyl]-8-(4-fluorophenyl)-2-(morpholin-4-yl)pyrazolo[1,5-a][1,3,5]triazin-4-amine], for which the IC50 in experiment [1] amounted to 32.2 nM. Moreover, in experiment [2], the DC50 amounted to 11.4 nM and the “(IC50 CDK12 high ATP) to (Degradation DC50 CDK12) ratio” value is given as greater than 876. For the same molecule, the IC50 at CDK2/CycE was greater than 20000 nM.

On to `Brc1cnn2c(NCc3nnc(-c4ccccc4)[nH]3)nc(N3CCNCC3)nc12.O=CO` [Example 119, 8-bromo-N-[(5-phenyl-4H-1,2,4-triazol-3-yl)methyl]-2-piperazin-1-yl-pyrazolo[1,5-a][1,3,5]triazin-4-amine formate], for which the IC50 in experiment [1] turned out to be 21.3 nM. In experiment [2], the DC50 came to 1.54 nM and the “(IC50 CDK12 high ATP) to (Degradation DC50 CDK12) ratio” value is given as 4303. Also, the IC50 at CDK2/CycE came to 7770 nM.

For the molecule `CC(C)c1cnn2c(NCc3nc4ccccc4[nH]3)nc(N3CCOC[C@H]3C)nc12` [Example 7, N-[(1H-benzimidazol-2-yl)methyl]-2-[(3R)-3-methylmorpholin-4-yl]-8-(propan-2-yl)pyrazolo[1,5-a][1,3,5]triazin-4-amine], the figures for the IC50 (in experiment [1]; at CDK2/CycE) were 203 nM and 6570 nM, respectively. Further, the DC50 in experiment [2] amounted to 63.6 nM. For the same molecule, in experiment [2], the “(IC50 CDK12 high ATP) to (Degradation DC50 CDK12) ratio” value was 161.

Regarding `C[C@@H]1CN(c2nc(NCc3nc4ccccc4[nH]3)n3ncc(Br)c3n2)CCN1C` [Example 135, N-[(1H-benzimidazol-2-yl)methyl]-8-bromo-2-[(3R)-3,4-dimethylpiperazin-1-yl]pyrazolo[1,5-a][1,3,5]triazin-4-amine], the IC50 in experiment [1] was 30 nM. Further, in experiment [2], the DC50 was 3.69 nM and the “(IC50 CDK12 high ATP) to (Degradation DC50 CDK12) ratio” value came to 3939. At CDK2/CycE, the IC50 turned out to be 7750 nM.

On to `Brc1cnn2c(NCc3nc4ccccc4[nH]3)nc(N3C[C@@H]4C[C@H]3CO4)nc12` [Example 103, N-[(1H-benzimidazol-2-yl)methyl]-8-bromo-2-[(1S,4S)-2-oxa-5-azabicyclo[2.2.1]heptan-5-yl]pyrazolo[1,5-a][1,3,5]triazin-4-amine], for which the IC50 in experiment [1] worked out at 71.9 nM. In addition, in experiment [2], the DC50 was determined as 5.36 nM and the “(IC50 CDK12 high ATP) to (Degradation DC50 CDK12) ratio” value stood at 1914. The IC50 on CDK2/CycE was 9050 nM.

Turning to `Brc1cnn2c(NCc3nc4ccccc4[nH]3)nc(N3C[C@H]4C[C@@H]3CO4)nc12` [Example 102, N-[(1H-benzimidazol-2-yl)methyl]-8-bromo-2-[(1R,4R)-2-oxa-5-azabicyclo[2.2.1]heptan-5-yl]pyrazolo[1,5-a][1,3,5]triazin-4-amine], in experiment [1], the IC50 came to 29.6 nM. Besides, in experiment [2], the DC50 was found to be 1.41 nM and the “(IC50 CDK12 high ATP) to (Degradation DC50 CDK12) ratio” value is on record as 4897. Besides, on CDK2/CycE, the IC50 was found to be 2420 nM.

In the case of `CN1CCN(c2nc(NCc3nnc(-c4ccccc4)[nH]3)n3ncc(Br)c3n2)CC1=O` [Example 121, 4-(8-bromo-4-{[(5-phenyl-4H-1,2,4-triazol-3-yl)methyl]amino}pyrazolo[1,5-a][1,3,5]triazin-2-yl)-1-methylpiperazin-2-one], the IC50 in experiment [1] came to 344 nM. In experiment [2], the DC50 was 43.5 nM and the “(IC50 CDK12 high ATP) to (Degradation DC50 CDK12) ratio” value is 172. Further, at CDK2/CycE, the IC50 is 2200 nM.

Consider `CN1CCN(c2nc(NCc3nc4c(F)c(F)ccc4[nH]3)n3ncc(C4CC4)c3n2)CC1` [Example 159, 8-cyclopropyl-N-[(4,5-difluoro-1H-benzimidazol-2-yl)methyl]-2-(4-methylpiperazin-1-yl)pyrazolo[1,5-a][1,3,5]triazin-4-amine], for which, in experiment [1], the IC50 turned out to be 1.68 nM. In addition, in experiment [2], the DC50 stood at 0.521 nM and the “(IC50 CDK12 high ATP) to (Degradation DC50 CDK12) ratio” value came out at 18457. Further, the IC50 on CDK2/CycE is greater than 20000 nM.

In the case of `Cc1ccc(-c2nnc(CNc3nc(N4CCOCC4)nc4c(Br)cnn34)[nH]2)cc1F` [Example 98, 8-bromo-N-{[5-(3-fluoro-4-methylphenyl)-4H-1,2,4-triazol-3-yl]methyl}-2-(morpholin-4-yl)pyrazolo[1,5-a][1,3,5]triazin-4-amine], the results for the IC50 (in experiment [1]; on CDK2/CycE) were 78.8 nM and 2030 nM, respectively. For the same molecule, the DC50 in experiment [2] turned out to be 38.5 nM. Further, the “(IC50 CDK12 high ATP) to (Degradation DC50 CDK12) ratio” value in experiment [2] was 28.

`Brc1cnn2c(NCc3nnc(-c4ccccc4)[nH]3)nc(N3C[C@H]4C[C@@H]3CO4)nc12` [Example 118, 8-bromo-2-[(1R,4R)-2-oxa-5-azabicyclo[2.2.1]heptan-5-yl]-N-[(5-phenyl-4H-1,2,4-triazol-3-yl)methyl]pyrazolo[1,5-a][1,3,5]triazin-4-amine]: the IC50 came out at 26.1 nM in experiment [1] and 3390 nM on CDK2/CycE. Moreover, the DC50 in experiment [2] came to 4.85 nM. Further, the “(IC50 CDK12 high ATP) to (Degradation DC50 CDK12) ratio” value in experiment [2] came to 1176.
